Experimental data reported in patent publication US8133909B2 (Hoffmann-La Roche Inc., priority 2008, dated 2012).
Structures can show the parent of a compound that is named as a salt.

molecular target: T1, human orexin-2 (hOX2) receptors (Homo sapiens, UniProt O43614); experiment: Intracellular Ca2+ mobilization assay (FLIPR), antagonism of orexin-A; type: cell-based; details: CHO(dHFr-) cells stably expressing hOX2; orexin-A at EC80 as agonist; antagonist applied 25 min before; Kb=IC50/(1+[A]/EC50); read-out: Kb (μM) OX2R (human)
T1 construct: expressed in transfected cells
T1 sequence (O43614 1-444): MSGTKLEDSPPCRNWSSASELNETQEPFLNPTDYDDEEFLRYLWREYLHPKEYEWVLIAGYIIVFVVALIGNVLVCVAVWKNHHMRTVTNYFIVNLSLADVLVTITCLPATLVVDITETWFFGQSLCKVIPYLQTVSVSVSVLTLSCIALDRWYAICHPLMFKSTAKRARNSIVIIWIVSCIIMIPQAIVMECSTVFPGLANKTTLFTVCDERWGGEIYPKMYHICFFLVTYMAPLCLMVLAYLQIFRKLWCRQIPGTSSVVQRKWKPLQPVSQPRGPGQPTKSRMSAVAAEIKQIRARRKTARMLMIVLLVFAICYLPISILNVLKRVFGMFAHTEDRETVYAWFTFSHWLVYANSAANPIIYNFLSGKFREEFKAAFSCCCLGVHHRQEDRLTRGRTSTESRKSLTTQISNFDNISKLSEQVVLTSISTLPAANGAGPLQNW
Method: Intracellular Ca^2+ Mobilization Assay
The Chinese Hamster Ovary (dHFr—) mutant cell line stably expressing human orexin-1 (hOX1) or human orexin-2 (hOX2) receptors were maintained in Dulbecco's Modified Eagle Medium (1X) with GlutaMax™ 1, 4500 mg/L D-Glucose and Sodium Pyruvate (Catalog No. 31966-021, Invitrogen, Carlsbad, Calif.), 5% dialyzed fetal calf serum (Catalog No. 26400-044), 100 μg/ml penicillin and 100 μg/ml streptomycin. The cells were seeded at 5×10^4 cells/well in the poly-D-lysine treated, 96-well, black/clear-bottomed plates (Catalog No. BD356640, BD Biosciences, Palo Alto, Calif.). 24 h later, the cells were loaded for 1 h at 37° C. with 4 μM Flou-4 acetoxymethyl ester (Catalog No. F-14202, Molecular Probes, Eugene, Oreg.) in FLIPR buffer (1×HBSS, 20 mM HEPES, 2.5 mM Probenecid). Hanks' Balanced Salt Solution (HBSS) (10×) (catalog No. 14065-049) and HEPES (1M) (catalog No. 15630-056) were purchased from Invitrogen, Carlsbad, Calif. Probenecid (250 mM) (catalog No. P8761) was from Sigma, Buchs, Switzerland. The cells were washed five times with FLIPR buffer to remove excess dye and intracellular calcium mobilization, [Ca^2+]i were measured using a Fluorometric Imaging Plate Reader (FLIPR-96, Molecular Devices, Menlo Park, Calif.) as described previously (Malherbe et al., Mol. Pharmacol., 64, 823-832, 2003). Orexin A (catalog No. 1455, Toris Cookson Ltd, Bristol, UK) was used as agonist. Orexin A (50 mM stock solution in DMSO) was diluted in FLIPR buffer +0.1% BSA. The EC50 and EC80 values of orexin-A were measured daily from standard agonist concentration-response curves in CHO(dHFr—)—OX1R and —OX2R cell lines. All compounds were dissolved in 100% DMSO. Inhibition curves were determined by addition of 11 concentrations (0.0001-10 μM) of inhibitory compounds and using EC80 value of orexin-A as agonist (a concentration which gave 80% of max agonist response, determined daily). The antagonists were applied 25 min (incubation at 37° C.) before the application of the agonist. Responses were measured as peak increase in fluorescence minus basal, normalized to the maximal stimulatory effect induced by EC80 value of orexin-A or orexin- B. Inhibition curves were fitted according to the Hill equation: y=100/(1+(x/IC50)^nH), where nH=slope factor using Excel-fit 4 software (Microsoft). Kb values were calculated according to the following equation Kb=IC50/(1+[A]/EC50) where A is the concentration of agonist added which is very close to agonist EC80 value, and IC50 and EC50 values were derived from the antagonist inhibition and orexin-A or B agonist curves, respectively.

Row | Molecule | Kb [µM]
1 | COc1cc(N(CCc2ccc(C(F)(F)F)nc2)C(=O)[C@@H](O)c2ccc(F)cc2)ccc1C [Example 61, (S)-2-(4-Fluoro-phenyl)-2-hydroxy-N-(3-methoxy-4-methyl-phenyl)-N-[2-(6-trifluoromethyl-pyridin-3-yl)-ethyl]-acetamide] | 0.0026
2 | COc1cc(N(CCc2ccc(C(F)(F)F)nc2)C(=O)[C@@H](O)c2ccccc2)ccc1C [Example 19, (S)-2-Hydroxy-N-(3-methoxy-4-methyl-phenyl)-2-phenyl-N-[2-(6-trifluoromethyl-pyridin-3-yl)-ethyl]-acetamide] | 0.0109
3 | Cc1ccc(N(CCc2ccc(C(F)(F)F)nc2)C(=O)Cc2ccccc2)cc1C [Example 17, N-(3,4-Dimethyl-phenyl)-2-phenyl-N-[2-(6-trifluoromethyl-pyridin-3-yl)-ethyl]-acetamide] | 0.0362
4 | Cc1ccc(CCN(C(=O)[C@@H](N)c2ccccc2)c2ccc(C)c(C)c2)nc1 [Example 21, (S)-2-Amino-N-(3,4-dimethyl-phenyl)-N-[2-(5-methyl-pyridin-2-yl)-ethyl]-2-phenyl-acetamide hydrochloride] | 0.0047
5 | CCn1nc(C)c2cc(N(CCc3ccc(C(F)(F)F)nc3)C(=O)[C@@H](O)c3ccccc3)ccc21 [Example 48, (S)—N-(1-Ethyl-3-methyl-1H-indazol-5-yl)-2-hydroxy-2-phenyl-N-[2-(6-trifluoromethyl-pyridin-3-yl)-ethyl]-acetamide] | 0.07
6 | COc1ccc(N(CCc2ccc(C(F)(F)F)cc2)C(=O)C(N)c2ccccc2)cn1 (racemic) [Example 36, (R,S)-2-Amino-N-(6-methoxy-pyridin-3-yl)-2-phenyl-N-[2-(4-trifluoromethyl-phenyl)-ethyl]-acetamide] | 0.061
7 | COc1ccc(N(CCc2ccc(C(F)(F)F)nc2)C(=O)[C@@H](NC(=O)[C@@H](N)c2ccccc2)c2ccccc2)cc1OC [Example 4, (S)-2-((S)-2-Amino-2-phenyl-acetylamino)-N-(3,4-dimethoxy-phenyl)-2-phenyl-N-[2(6-trifluoromethyl-pyridin-3-yl)-ethyl]-acetamide] | 0.0017
8 | COc1ccc(N(CCc2ccc(C(F)(F)F)nc2)C(=O)[C@@H](N)c2ccccc2)cc1OC [Example 5, (S)-2-Amino-N-(3,4-dimethoxy-phenyl)-2-phenyl-N-[2-(6-trifluoromethyl-pyridin-3-yl)-ethyl]-acetamide] | 0.0005
9 | O=C(C(O)c1ccc(F)cc1)N(CCc1ccc(C(F)(F)F)cn1)c1ccc2c(c1)CCO2 (racemic) [Example 75, (R,S)—N-(2,3-Dihydro-benzofuran-5-yl)-2-(4-fluoro-phenyl)-2-hydroxy-N-[2-(5-trifluoromethyl-pyridin-2-yl)-ethyl]-acetamide] | 0.013
10 | Cc1ccc(N(CCc2ccc(F)cn2)C(=O)[C@@H](O)c2ccccc2)cc1C [Example 68, (S)—N-(3,4-Dimethyl-phenyl)-N-[2-(5-fluoro-pyridin-2-yl)-ethyl]-2-hydroxy-2-phenyl-acetamide] | 0.0232
11 | Cc1ccc(N(CCc2ccc(C(F)(F)F)cn2)C(=O)[C@@H](N)c2ccccc2)cc1C [Example 25, (S)-2-Amino-N-(3,4-dimethyl-phenyl)-2-phenyl-N-[2-(5-trifluoromethyl-pyridin-2-yl)-ethyl]-acetamide hydrochloride] | 0.0008
12 | Cc1ccc(N(CCc2ccc(C(F)(F)F)nc2)C(=O)[C@@H](O)c2ccc(F)cc2)cc1C [Example 7, (S)—N-(3,4-Dimethyl-phenyl)-2-(4-fluoro-phenyl)-2-hydroxy-N-[2-(6-trifluoromethyl-pyridin-3-yl)-ethyl]-acetamide] | 0.0005
13 | O=C([C@@H](O)c1ccccc1)N(CCc1ccc(C(F)(F)F)nc1)c1ccc2c(c1)CCCO2 [Example 62] | 0.011
14 | (S)-2-Hydroxy-N-(3-methoxy-phenyl)-2-phenyl-N-[2-(6-trifluoromethyl-pyridin-3-yl)-ethyl]-acetamide [Example 58] | 0.0167
15 | O=C([C@@H](O)c1ccccc1)N(CCc1ccc(C(F)(F)F)nc1)c1ccc2c(c1)OCCO2 [Example 55, (S)—N-(2,3-Dihydro-benzo[1,4]dioxin-6-yl)-2-hydroxy-2-phenyl-N-[2-(6-trifluoromethyl-pyridin-3-yl)-ethyl]-acetamide] | 0.0142
16 | Cc1ccc(CCN(C(=O)C(N)c2ccc(Cl)cc2)c2sc(C)nc2C)cc1 (racemic) [Example 32, (R,S)-2-Amino-2-(4-chloro-phenyl)-N-(2,4-dimethyl-thiazol-5-yl)-N-(2-p-tolyl-ethyl)-acetamide] | 0.0943
17 | O=C([C@@H](O)c1ccccc1)N(CCc1ccc(C(F)(F)F)nc1)c1cnc2ccccc2c1 [Example 49] | 0.0361

Results, then the molecule that gave them:

Row | Kb [µM] | Molecule
18 | 0.0378 | O=C([C@@H](O)c1ccc(F)cc1)N(CCc1ccc(C(F)(F)F)cn1)c1ccc2c(c1)CCC2 [Example 86, (S)-2-(4-Fluoro-phenyl)-2-hydroxy-N-indan-5-yl-N-[2-(5-trifluoromethyl-pyridin-2-yl)-ethyl]-acetamide]
19 | 0.0481 | Cc1ccc(N(CCc2ccc(C(F)(F)F)cn2)C(=O)C(O)c2ccc(F)cc2)cc1F (racemic) [Example 78, (R,S)—N-(3-Fluoro-4-methyl-phenyl)-2-(4-fluoro-phenyl)-2-hydroxy-N-[2-(5-trifluoromethyl-pyridin-2-yl)-ethyl]-acetamide]
20 | 0.0289 | Cc1ccc(N(CCc2ccc(C(F)(F)F)cn2)C(=O)[C@@H](O)c2ccc(F)cc2)cc1F [Example 80, (S)—N-(3-Fluoro-4-methyl-phenyl)-2-(4-fluoro-phenyl)-2-hydroxy-N-[2-(5-trifluoromethyl-pyridin-2-yl)-ethyl]-acetamide]
21 | 0.026 | COc1cccc(N(CCc2ccc(C(F)(F)F)cn2)C(=O)C(O)c2ccc(F)cc2)c1 (racemic) [Example 76, (R,S)-2-(4-Fluoro-phenyl)-2-hydroxy-N-(3-methoxy-phenyl)-N-[2-(5-trifluoromethyl-pyridin-2-yl)-ethyl]-acetamide]
22 | 0.0276 | CCc1cc(N(CCc2ccc(C(F)(F)F)cn2)C(=O)C(O)c2ccc(F)cc2)ccc1Cl (racemic) [Example 97, (R,S)-N-(4-Chloro-3-ethyl-phenyl)-2-(4-fluoro-phenyl)-2-hydroxy-N-[2-(5-trifluoromethyl-pyridin-2-yl)-ethyl]-acetamide]
23 | 0.0106 | COc1cc(N(CCc2ccc(C(F)(F)F)cn2)C(=O)C(O)c2ccc(F)cc2)ccc1F (racemic) [Example 88, (R,S)—N-(4-Fluoro-3-methoxy-phenyl)-2-(4-fluoro-phenyl)-2-hydroxy-N-[2-(5-trifluoromethyl-pyridin-2-yl)-ethyl]-acetamide]
24 | 0.0285 | COC(=O)c1cc(N(CCc2ccc(C(F)(F)F)cn2)C(=O)C(O)c2ccc(F)cc2)ccc1Cl (racemic) [Example 99, (R,S)-2-Chloro-5-{[2-(4-fluoro-phenyl)-2-hydroxy-acetyl]-[2-(5-trifluoromethyl-pyridin-2-yl)-ethyl]-amino}-benzoic acid methyl ester]
25 | 0.0146 | COc1ccc(N(CCc2ccc(C(F)(F)F)cn2)C(=O)C(O)c2ccc(F)cc2)cc1C (racemic) [Example 93, (R,S)-2-(4-Fluoro-phenyl)-2-hydroxy-N-(4-methoxy-3-methyl-phenyl)-N-[2-(5-trifluoromethyl-pyridin-2-yl)-ethyl]-acetamide]
